# Data reported in patent US10570179B2, “Substituted urea depsipeptide analogs as activators of the CLPP endopeptidase” (priority 2016, dated 2020).
# Numbered stars: 1 amine (or outer) side, 2 acyl side, 3 side chain; on linkers, the order of the positions; unused ones are H or OH. Bridge positions count the residues as written; N and C are the ends. Square brackets hold non-standard residues; d marks the D form. Peptide text beside a SMILES is read from it. * marks the point of attachment. ξ: configuration not given here. Phe(3,5-Me2) = Cc1cc(C)cc(C[C@H](N)C(=O)O)c1; Phe(3-Me) = Cc1cccc(C[C@H](N)C(=O)O)c1; NH(4-Cl-2-F-phenyl) = Fc1cc(Cl)ccc1N*; Pro(4R-Me) = C[C@H]1CN[C@H](C(=O)O)C1; Hyp = O=C(O)[C@@H]1C[C@@H](O)CN1; NH(4-Me-phenyl) = Cc1ccc(N*)cc1; ξNMeThr = CNC(C(=O)O)[C@@H](C)O; aThr = C[C@H](O)[C@H](N)C(=O)O; Pip = O=C(O)[C@@H]1CCCCN1; CO = O=C([*:1])[*:2]
# What was measured:
# S. aureus ClpP (Sa-ClpP) = target: T1, S. aureus ClpP (Sa-ClpP) (Staphylococcus aureus, UniProt Q2G036); test: Casein-BODIPY digestion assay (ClpP activation); type: biochemical
# T1 construct: made in house; host or cells: E. coli BL21 (DE3)
# S. aureus ΔClpP = test: Minimal inhibitory concentration, microbroth dilution; type: cell-based, Staphylococcus aureus; details: MIC; ClpP inactivated
# Procedure, shortened: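 Susceptibility testing used the CLSI dilution standard, with bacteria at ~10^5 cfu/mL exposed to a two-fold compound series beginning at 200 μM final. The endpoint is the lowest concentration showing no growth after overnight incubation (37 °C, aerobic).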
# Plasma stability assay = type: in vitro ADME, mouse
# Description: The plasma stability property of early drug discovery compounds can influence the in vivo efficacy of the test compounds/drugs. Human and/or mouse plasma degradation is determined using multiple time points to monitor the rate of disappearance of the parent compound during incubation.
# Sample preparation for plasma stability was modified from Di et al. (2005) Int. J. Pharm. 297(1-2): 110-119. A set of incubation times of 0, 3, 24, and 48 hour were used. DMSO stock solutions of test compounds were prepared at 10 mM concentration. 1.8 μL of each test compound was each added directly to 1.8 mL of human/mouse plasma to get the final concentration of 10 μM. This compound/matrix was mixed and 70 μL was transferred to 8 time points plates (each in triplicate wells). For the Time 0 plate, 210 μL of cold acetonitrile with internal standard (4 μg/mL warfarin) was added to each well and no incubation needed. For other seven time points' plate, the plate was incubated at 37° C. for required time, followed by quenching of the reaction by adding 210 μL of cold acetonitrile with internal standard (4 μg/ml warfarin) to each well. All of the plates were sealed and mixed well at 600 rpm for 10 min and were centrifuged at 4000 rpm for 20 min. The supernatants (120 μL) were transferred to analytical plates for analysis by LCMS. Conditions for Waters ACQUITY-UPLC-MS-UV system was described separately. The plasma stability was evaluated via the half-life from least-squares fit of the multiple time points based on first-order kinetics.
# [1] = plasma stability half-life, mouse plasma, 37° C.
# T1 sequence (Q2G036 whole entry): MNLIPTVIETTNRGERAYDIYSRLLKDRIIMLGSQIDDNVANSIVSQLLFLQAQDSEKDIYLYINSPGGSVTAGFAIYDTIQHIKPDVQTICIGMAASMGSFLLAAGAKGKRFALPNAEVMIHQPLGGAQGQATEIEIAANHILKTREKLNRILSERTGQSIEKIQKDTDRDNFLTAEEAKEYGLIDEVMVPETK
SMILES,EC50 (S. aureus ClpP (Sa-ClpP)),Minimal Inhibitory Concentrations (μM) S. aureus ΔClpP (S. aureus ΔClpP),Mouse (hr) (Plasma stability assay; [1]),"Mouse (hr) (Plasma stability assay; mouse, 10 μM)","Mouse (Plasma stability assay; mouse, 10 μM)"
"Cc1ccc(NC(=O)N[C@@H](Cc2cccc(C)c2)C(=O)N[C@@H]2C(=O)N3CCC[C@H]3C(=O)N3CCCC[C@H]3C(=O)N[C@@H](C)C(=O)N3C[C@H](C)C[C@H]3C(=O)O[C@H]2C)cc1 [Compound 1, (S)-3-(M-TOLYL)-2-(3-(P-TOLYL)UREIDO)-N-((2R,6S,8AS,14AS,20S,21S,23AS)-2,6,21-TRIMETHYL-5,8,14,19,23-PENTAOXOOCTADECAHYDRO-1H,5H,14H,19H-PYRIDO[2,1-I]DIPYRROLO[2,1-C:2′,1′-L][1]OXA[4,7,10,13]TETRAAZACYCLOHEXADECIN-20-YL)PROPANAMIDE] ({NH(4-Me-phenyl)-CO}-[Phe(3-Me)][aThr]P[Pip]A[Pro(4R-Me)]; ester 2-C)",430 ± 20 nM,200 µM,>>48 hr,–,–
"Cc1ccc(NC(=O)N[C@@H](Cc2cc(C)cc(C)c2)C(=O)N[C@@H]2C(=O)N3CCC[C@H]3C(=O)N3CCCC[C@H]3C(=O)N[C@@H](C)C(=O)N3C[C@H](C)C[C@H]3C(=O)O[C@H]2C)cc1 [Compound 2, (S)-3-(3,5-DIMETHYLPHENYL)-2-(3-(P-TOLYL)UREIDO)-N-((2R,6S,8AS,14AS,20S,21S,23AS)-2,6,21-TRIMETHYL-5,8,14,19,23-PENTAOXOOCTADECAHYDRO-1H,5H,14H,19H-PYRIDO[2,1-I]DIPYRROLO[2,1-C:2′,1′-L][1]OXA[4,7,10,13]TETRAAZACYCLOHEXADECIN-20-YL)PROPANAMIDE] ({NH(4-Me-phenyl)-CO}-[Phe(3,5-Me2)][aThr]P[Pip]A[Pro(4R-Me)]; ester 2-C)",870 ± 30 nM,200 µM,>>48 hr,–,–
"Cc1cccc(C[C@H](NC(=O)Nc2ccc(Cl)cc2F)C(=O)N[C@@H]2C(=O)N3CCC[C@H]3C(=O)N3CCCC[C@H]3C(=O)N[C@@H](C)C(=O)N3C[C@H](C)C[C@H]3C(=O)O[C@H]2C)c1 [Compound 3, (S)-2-(3-(4-CHLORO-2-FLUOROPHENYL)UREIDO)-3-(M-TOLYL)-N-((2R,6S,8AS,14AS,20S,21S,23AS)-2,6,21-TRIMETHYL-5,8,14,19,23-PENTAOXOOCTADECAHYDRO-1H,5H,14H,19H-PYRIDO[2,1-I]DIPYRROLO[2,1-C:2′,1′-L][1]OXA[4,7,10,13]TETRAAZACYCLOHEXADECIN-20-YL)PROPANAMIDE] ({NH(4-Cl-2-F-phenyl)-CO}-[Phe(3-Me)][aThr]P[Pip]A[Pro(4R-Me)]; ester 2-C)",390 ± 20 nM,50 µM,–,>>48 hr,–
"Cc1cc(C)cc(C[C@H](NC(=O)Nc2ccc(Cl)cc2F)C(=O)N[C@@H]2C(=O)N3CCC[C@H]3C(=O)N3CCCC[C@H]3C(=O)N[C@@H](C)C(=O)N3C[C@H](C)C[C@H]3C(=O)O[C@H]2C)c1 [Compound 4, (S)-2-(3-(4-CHLORO-2-FLUOROPHENYL)UREIDO)-3-(3,5-DIMETHYLPHENYL)-N-((2R,6S,8AS,14AS,20S,21S,23AS)-2,6,21-TRIMETHYL-5,8,14,19,23-PENTAOXOOCTADECAHYDRO-1H,5H,14H,19H-PYRIDO[2,1-I]DIPYRROLO[2,1-C:2′,1′-L][1]OXA[4,7,10,13]TETRAAZACYCLOHEXADECIN-20-YL)PROPANAMIDE] ({NH(4-Cl-2-F-phenyl)-CO}-[Phe(3,5-Me2)][aThr]P[Pip]A[Pro(4R-Me)]; ester 2-C)",430 ± 20 nM,25 µM,–,>>48 hr,–
Cc1cccc(C[C@H](NC(=O)Nc2ccc(Cl)cc2F)C(=O)N[C@@H]2C(=O)N3CCC[C@H]3C(=O)N(C)C([C@@H](C)O)C(=O)N[C@@H](C)C(=O)N3C[C@H](C)C[C@H]3C(=O)O[C@H]2C)c1 (stereo partly drawn) [Compound 5] ({NH(4-Cl-2-F-phenyl)-CO}-[Phe(3-Me)][aThr]P[ξNMeThr]A[Pro(4R-Me)]; ester 2-C),320 ± 20 nM,>20 µM,–,–,>50 h
"Cc1cccc(C[C@H](NC(=O)Nc2ccc(Cl)cc2F)C(=O)N[C@@H]2C(=O)N3C[C@H](O)C[C@H]3C(=O)N3CCCC[C@H]3C(=O)N[C@@H](C)C(=O)N3C[C@H](C)C[C@H]3C(=O)O[C@H]2C)c1 [Compound 6, (S)-2-(3-(4-CHLORO-2-FLUOROPHENYL)UREIDO)-N-((2R,6S,8AS,14AS,16R,20S,21S,23AS)-16-HYDROXY-2,6,21-TRIMETHYL-5,8,14,19,23-PENTAOXOOCTADECAHYDRO-1H,5H,14H,19H-PYRIDO[2,1-I]DIPYRROLO[2,1-C:2′,1′-L][1]OXA[4,7,10,13]TETRAAZACYCLOHEXADECIN-20-YL)-3-(M-TOLYL)PROPANAMIDE] ({NH(4-Cl-2-F-phenyl)-CO}-[Phe(3-Me)][aThr][Hyp][Pip]A[Pro(4R-Me)]; ester 2-C)",230 ± 20 nM,>20 µM,–,–,>50 h
